For this experiment, the system named is Spodoptera littoralis. Briefly: Insecticidal bioassay screening (castor leaf dip) on second and fourth instar larvae. The settings on record: for Toxicity index %: 72 hrs, Diflubenzuron's LC50 / the compound's LC50 × 100; for LC90 (mg/L) at 95%: after 72 hrs of treatment, treated castor leaves; for LC50: Spodoptera littoralis, in Gossypium hirsutum, foliar, 72 h. It is filed as in vivo. Here is the method:
Five concentrations (200, 100, 50, 25, 12.5 ppm) were designed for this synthetic compound and the reference Diflubenzuron compound as the dynamic ingredients based on mg/L via diluting the commercial formulation.
In this experiment, castor leaves are immersed in each of the previously prepared concentrations of the components for 10 seconds and then left to dry for 60 minutes. Larvae of the second and fourth instars of each checked strain are prepared with treated leaves in gauze-covered glass containers for 72 hrs. An untreated control is made in which leaves are dipped in triton x-100 and distilled water only. Then the preserved leaves were removed & fresh, untreated leaves were provided for 72 hours. Three replicates (10 larvae each) were checked for each concentration. Daily inspection was carried out for all treatments and mortality percentages were recorded 3 days (72 hours) after treatment. The average mortality percentage was corrected employing Abbott's formula. The corrected mortality rate for each of the previously synthesized compounds is statistically calculated according to Finney (1970). Through this rate, the corresponding concentration test lines (LDP lines) are assessed.

The mark [1] stands for this setting: read-out: LC50 (mg/L) at 95%, 2nd instar larvae, after 72 hrs of treatment, treated castor leaves.
The mark [2] stands for this setting: read-out: LC50 (mg/L) at 95%, 4th instar larvae, after 72 hrs of treatment, treated castor leaves.

Consider 2 molecules from patent publication US12161116B1, “Ethyl-2-{[(2,4-dichlorobenzoyl carbamothioyl]amino}-4,5,6,7-tetrahydro-1-benzothiophene-3-carboxylate as an eco-friendly insecticidal agent against Spodoptera littoralis (boisd.)” (priority 2023, dated 2024).

Converted amounts (≈) assume the structure as drawn. Where two headings read alike, the source gives them in different places.

As for `O=C(NC(=O)c1c(F)cccc1F)Nc1ccc(Cl)cc1` [Diflubenzuron], the Toxicity index % by setting is: (2nd instar larvae) 100%; (4th instar larvae) 100%. Further, the “LC90 (mg/L) at 95%” value (2nd instar larvae) was found to be 520.0 mg/L (≈ 1670 µM) and the “LC90 (mg/L) at 95%” value (4th instar larvae) was determined as 1540.5 mg/L (≈ 4960 µM). In addition, the LC50 under setting [1] turned out to be 45.2 mg/L (≈ 145 µM) and the LC50 under setting [2] came to 144 mg/L (≈ 464 µM).

`CCOC(=O)c1c(NC(=S)NC(=O)c2ccc(Cl)cc2Cl)sc2c1CCCC2` [Ethyl-2-{[(2,4-dichlorobenzoyl)carbamothioyl]amino}-4,5,6,7-tetrahydro-1-benzothiophene-3-carboxylate]: the LC50 is about 270 mg/L (≈ 591 µM) under setting [1] and about 631 mg/L (≈ 1380 µM) under setting [2].
